From patent US10722514B2 (FLX Bio, Inc., priority 2017, dated 2020) come the findings set out here.

Where a name gives a salt, the structure may show the parent alone.

A word on the IC50: it is the concentration at which inhibition is half-maximal.

The target in the first assay is T1, recombinant full-length USP7 (Homo sapiens, UniProt Q93009).
T1 construct: A 25 μl reaction volume containing recombinant full-length USP7 (62 pM)
T1 sequence (Q93009 whole entry): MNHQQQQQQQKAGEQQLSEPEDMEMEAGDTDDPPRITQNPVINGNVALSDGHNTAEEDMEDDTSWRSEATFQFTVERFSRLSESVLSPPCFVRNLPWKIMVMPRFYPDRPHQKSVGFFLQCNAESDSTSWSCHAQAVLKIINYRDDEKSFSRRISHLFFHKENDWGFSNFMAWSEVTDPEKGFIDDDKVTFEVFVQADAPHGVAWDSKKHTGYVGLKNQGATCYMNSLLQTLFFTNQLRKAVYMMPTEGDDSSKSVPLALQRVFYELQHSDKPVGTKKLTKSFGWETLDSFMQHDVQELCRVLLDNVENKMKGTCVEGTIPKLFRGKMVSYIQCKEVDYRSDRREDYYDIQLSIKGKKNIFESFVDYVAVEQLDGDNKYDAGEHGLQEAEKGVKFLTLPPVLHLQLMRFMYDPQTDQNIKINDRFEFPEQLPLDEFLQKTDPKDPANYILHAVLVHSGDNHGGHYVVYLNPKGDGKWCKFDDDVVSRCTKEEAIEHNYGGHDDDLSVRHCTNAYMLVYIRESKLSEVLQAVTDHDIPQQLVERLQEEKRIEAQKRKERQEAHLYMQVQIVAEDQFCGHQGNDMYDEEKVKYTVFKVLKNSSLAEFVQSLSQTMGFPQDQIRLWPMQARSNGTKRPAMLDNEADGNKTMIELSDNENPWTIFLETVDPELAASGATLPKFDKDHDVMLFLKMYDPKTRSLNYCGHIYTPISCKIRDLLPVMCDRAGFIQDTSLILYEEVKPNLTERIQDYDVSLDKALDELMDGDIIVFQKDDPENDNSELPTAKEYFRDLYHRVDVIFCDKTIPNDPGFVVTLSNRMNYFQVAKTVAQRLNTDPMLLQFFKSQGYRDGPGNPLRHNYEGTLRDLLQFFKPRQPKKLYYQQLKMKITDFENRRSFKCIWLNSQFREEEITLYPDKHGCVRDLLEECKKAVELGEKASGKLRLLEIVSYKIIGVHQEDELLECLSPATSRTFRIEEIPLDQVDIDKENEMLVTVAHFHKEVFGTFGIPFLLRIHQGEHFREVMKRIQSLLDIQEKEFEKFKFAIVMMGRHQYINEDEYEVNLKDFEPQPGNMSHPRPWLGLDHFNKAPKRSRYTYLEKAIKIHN
As to the kind of experiment: USP7-mediated ubiquitin-rhodamine cleavage assay. The class given is biochemical. The settings on record: recombinant full-length USP7 62 pM; ubiquitin-rhodamine 100 nM; 30-minute incubation with compound, 1 hour reaction at room temperature; read-out: Potency: USP7 IC50. The method in brief:
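Rhodamine fluorescence read-out after acetic acid stop; IC50 by 4-parameter nonlinear regression. Enzyme at 62 pM, substrate ubiquitin-rhodamine 100 nM final, 1 h at room temperature in the dark, after 30 min compound preincubation. Buffer: HEPES pH 7.3, NaCl, TCEP, BSA; 1% DMSO.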
Take `Cc1cc(Cl)cc(-c2ccnc3cc(Cn4c(=O)ccn(CC(F)(F)F)c4=O)sc23)c1O[C@@H]1CNCC[C@H]1C` [Example 342, 3-[[7-[5-chloro-3-methyl-2-[[(3S,4R)-4-methyl-3-piperidyl]oxy]phenyl]thieno[3,2-b]pyridin-2-yl]methyl]-1-(2,2,2-trifluoroethyl)pyrimidine-2,4-dione]: the 50% inhibitory concentration (IC50) is less than 1 µM.
The same measure, in the same setting: then `Cc1cc(Cl)cc(-c2ccnc3cc(CN4C(=O)C5CCCCN5C4=O)sc23)c1OC1CCNCC1` (stereo not shown) [Example 228, 2-((7-(5-Chloro-3-methyl-2-(piperidin-4-yloxy)phenyl)thieno[3,2-b]pyridin-2-yl)methyl)tetrahydroimidazo[1,5-a]pyridine-1,3(2H,5H)-dione], with less than 1 µM; and `CCC(O)c1cc2nccc(-c3cccc(C)c3OC3CCNCC3)c2s1` (stereo not shown) [Example 172, 1-(7-(3-Methyl-2-(piperidin-4-yloxy)phenyl)thieno[3,2-b]pyridin-2-yl)propan-1-ol], with 10 to 30 µM; and `Cc1cc(Cl)cc(-c2ccnc3cc(CO)sc23)c1O[C@@H]1C[C@H]2CC[C@@H](C1)N2` [Example 192, (7-(2-(((1R,3S,5S)-8-Azabicyclo[3.2.1]octan-3-yl)oxy)-5-chloro-3-methylphenyl)thieno[3,2-b]pyridin-2-yl)methanol], with 1 to 10 µM.
The same measure, in the same setting: then `Cc1cc(Cl)cc(-c2ccnc3cc(CN4C(=O)CCC4=O)sc23)c1OCC1(F)CNC1` [Example 15, 1-((7-(5-Chloro-2-((3-fluoroazetidin-3-yl)methoxy)-3-methylphenyl)thieno[3,2-b]pyridin-2-yl)methyl)pyrrolidine-2,5-dione], with less than 1 µM; and `OCc1cc2nccc(-c3cc(Cl)cc(Br)c3O[C@H]3CCCNC3)c2s1` [Example 166, (S)-(7-(3-Bromo-5-chloro-2-(piperidin-3-yloxy)phenyl)thieno[3,2-b]pyridin-2-yl)methanol], with 1 to 10 µM; and `CCC(O)c1cc2ncnc(-c3cc(Cl)cc(C)c3O[C@H]3CCCNC3)c2s1` (stereo partly drawn) [Example 174, 1-(4-(5-Chloro-3-methyl-2-(((S)-piperidin-3-yl)oxy)phenyl)thieno[3,2-d]pyrimidin-6-yl)propan-1-ol], with 1 to 10 µM.

Staying with this assay, now noted: recombinant full-length USP7 62 pM; ubiquitin-rhodamine 100 nM; 30-minute incubation, 1 hour reaction at room temperature; read-out: Potency (USP7 IC50).
With `Cc1cc(Cl)cc(-c2ccnc3cc(Cn4c(=O)ccn(CC(F)(F)F)c4=O)sc23)c1OC1CC(N2C[C@@H]3C[C@H]2CO3)C1` (stereo partly drawn) [Example 675, 3-[[7-[5-chloro-3-methyl-2-[3-[(1S,4S)-2-oxa-5-azabicyclo[2.2.1]heptan-5-yl]cyclobutoxy]phenyl]thieno[3,2-b]pyridin-2-yl]methyl]-1-(2,2,2-trifluoroethyl)pyrimidine-2,4-dione], the IC50 was less than 1 µM.

The same assay, now with this note: recombinant full-length USP7 62 pM; ubiquitin-rhodamine 100 nM; 30-minute pre-incubation, 1 hour reaction at room temperature; read-out: Potency (USP7 IC50).
For `Cc1cc(Cl)cc(-c2ccnc3cc(Cn4c(=O)ccn(CC(F)(F)F)c4=O)sc23)c1OC1CC(N2CCC[C@H]2CO)C1` (stereo partly drawn) [Example 624, 3-[[7-[5-chloro-2-[3-[(2S)-2-(hydroxymethyl)pyrrolidin-1-yl]cyclobutoxy]-3-methyl-phenyl]thieno[3,2-b]pyridin-2-yl]methyl]-1-(2,2,2-trifluoroethyl)pyrimidine-2,4-dione dihydrochloride], the 50% inhibitory concentration (IC50) is less than 1 µM.
On the same count and under the same terms, the result for `Cc1cc(Cl)cc(-c2ccnc3cc(CN4C(=O)CCC4=O)sc23)c1OC1CC(N)C1` (stereo not shown) [Example 413, 1-[[7-[2-(3-aminocyclobutoxy)-5-chloro-3-methyl-phenyl]thieno[3,2-b]pyridin-2-yl]methyl]pyrrolidine-2,5-dione dihydrochloride] reads less than 1 µM.
